From patent publication US7351408B2 (priority 1997, dated 2008)

Key:
Type in all cases: cell-based, human
Jurkat cells [1] = system: Jurkat cells
Jurkat cells [2] = experiment: Normal sialic acid released by sialidase digestion, quantified by HPAEC
From the text: We therefore evaluated the effects of ManLev treatment on the amount of normal sialic acid on Jurkat cells, expecting a reduction.

HeLa cells = system: HeLa cells
HL-60 cells = system: HL-60 cells
Jurkat cells [3] = experiment: Cell morphology and rate of cell growth during prolonged treatment; conditions: up to 6 weeks
From the text: We have also determined the quantitative and physiological limits to the cell surface expression of reactive functional groups. […] At saturation, we calculated the number of ketones accessible to chemoselective ligation and flow cytometry analysis to be approximately 1.8×10^6 per cell (32). No effects on cell morphology or the rate of cell growth were observed during prolonged (up to 6 weeks) treatment with ManLev.

Molecule	increase in fluorescence above the background level (ketone expression) (Jurkat cells [1])	amount of sialic acid released by sialidase digestion, lower than that from ManNAc-treated cells (Jurkat cells [2])	increase in fluorescence above the background level (ketone expression) (HeLa cells)	dose dependence of ketone expression (Jurkat cells [1])	number of ketones accessible to chemoselective ligation and flow cytometry analysis (Jurkat cells [1])	increase in fluorescence above the background level (ketone expression) (HL-60 cells)	effects on cell morphology or the rate of cell growth (Jurkat cells [3])	effect on ketone expression resulting from ManLev treatment (Jurkat cells [1])	effect on ketone expression resulting from ManLev treatment (HeLa cells)	effect on ketone expression resulting from ManLev treatment (HL-60 cells)
CC(=O)CCC(=O)N[C@H]1C(O)O[C@H](CO)[C@@H](O)[C@@H]1O (stereo partly drawn) [GlcLev, N-levulinoyl glucosamine]	only background fluorescence									
CC(=O)CCC(=O)N[C@@H]1C(O)O[C@H](CO)[C@@H](O)[C@@H]1O (stereo partly drawn) [ManLev, N-levulinoyl mannosamine]	≤ 30 fold	approximately 10 fold	≤ 30 fold	dose dependent and saturable	approximately 1.8×10^6 per cell	≤ 30 fold	No effects			
CC(=O)N[C@@H]1C(O)O[C@H](CO)[C@@H](O)[C@@H]1O (stereo partly drawn) [ManNAc, N-Acetylmannosamine, reference compound]	only a background level of fluorescence		only a background level of fluorescence			only a background level of fluorescence		inhibited		
tunicamycin								inhibited by tunicamycin in a dose-dependent fashion	unaffected	unaffected
